The target of assay [1] is T1, condensate formation by G3BP1 and RNA (Homo sapiens, UniProt Q13283).
T1 construct: made in house; host or cells: E. coli BL21 (DE3)
The experiment in a line: In vitro LLPS, two-component system (G3BP1 and RNA). Type of assay: biochemical. Particulars: 20 μM G3BP1, 100 ng RNA, up to 166 μM compound. As for the experimental part:
LLPS assays were performed in 30 μl total volume at 25°C at pH 7.4 in buffer containing 37 mM Tris, pH 7.5, 116 mM NaCl, 0.33% NP-40, 2.6% glycerol, 0.5 mM DTT with 20 ng/μl total cellular RNA from U2OS cells and 1.425 μM G3BP1, 0.075 μM FLAG-GFP-G3BP1, and 1.5 μM caprin 1. Reactions were initiated by adding G3BP1/caprin 1 protein mix to cellular RNA, followed by 3 min of shaking at 450 rpm and then incubation for 70 min in the dark. For condensates formed with G3BP1 and RNA, 20 μM purified G3BP1 and 100 ng of total cellular RNA from HEK293T cells were added to a buffer consisting of 100 mM NaCl and 16.7 mM HEPES (pH 7.5) in the presence of the indicated dose of G3Ib or vehicle control.

Assay [2] has as its system preformed stress granules in human iPSC-derived cortical neurons. Kind of assay: Dissolution of preformed stress granules in iPSC-derived cortical neurons. The class given is cell-based. Particulars: 50 μM added after 30 min of 500 μM NaAsO2. How it is done:
i3N iPSC clones were gifts from Michael E. Ward (National Institutes of Health, Bethesda, MD, USA) and were used to generate a G3BP1-mNeongreen knock-in iPSC line. iPS neurons were differentiated with a two-step protocol (predifferentiation and maturation) as previously described ([Wang et al., 2017]). For predifferentiation, iPSCs were incubated with 1 µg/ml doxycycline hyclate (Sigma-Aldrich) for 3 days at a density of 1.2 × 10^6 cells/well in six-well dishes coated with Matrigel in knockout DMEM (KO-DMEM)/F12 medium (Thermo Fisher Scientific) containing N2 supplement (Thermo Fisher Scientific), non-essential amino acids (NEAA; Thermo Fisher Scientific), GlutaMAX Supplement (Thermo Fisher Scientific), and Y-27632 ([…] Technologies). The medium was changed daily and Y-27632 was removed from day 2. For maturation, predifferentiated precursor cells were dissociated, counted, and subplated at 25 × 10^4 cells/ml on dishes coated with 50 μg/ml poly-L-ornithine in BrainPhys neuronal medium ([…] Technologies) containing N2 (Thermo Fisher Scientific), B-27, 20 ng/ml BDNF (PeproTech), 20 ng/ml GDNF (PeproTech), 500 µg/ml dibutyryl cyclic-AMP (Sigma-Aldrich), 200 nM L-ascorbic acid (Sigma-Aldrich), 1 µg/ml natural mouse laminin (Thermo Fisher Scientific), 1 μM Ara-C (Sigma-Aldrich), and 1 µg/ml doxycycline hyclate. Half-medium was changed every other day. […]

One compound from publication PMC10824102, “Identification of small molecule inhibitors of G3BP-driven stress granule formation” (The Journal of Cell Biology, 2024) can be followed below.

T1 sequence (Q13283 whole entry): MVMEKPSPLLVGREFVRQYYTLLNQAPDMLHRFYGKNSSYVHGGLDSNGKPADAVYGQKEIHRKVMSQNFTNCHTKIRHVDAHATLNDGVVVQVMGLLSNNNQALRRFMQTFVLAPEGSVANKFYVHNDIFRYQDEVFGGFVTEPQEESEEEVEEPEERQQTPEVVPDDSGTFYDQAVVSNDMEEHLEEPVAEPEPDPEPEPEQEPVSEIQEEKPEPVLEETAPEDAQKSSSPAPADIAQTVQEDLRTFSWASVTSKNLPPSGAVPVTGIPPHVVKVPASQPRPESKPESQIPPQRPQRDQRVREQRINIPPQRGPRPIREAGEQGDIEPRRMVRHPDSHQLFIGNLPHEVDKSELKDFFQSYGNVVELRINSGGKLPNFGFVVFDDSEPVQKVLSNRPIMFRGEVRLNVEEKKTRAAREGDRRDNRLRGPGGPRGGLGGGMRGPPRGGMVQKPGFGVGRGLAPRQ

In the case of `CC(NC(=O)C(NC(=O)C(NC(=O)CCC(C)(C)C)C(C)(C)O)C(C)c1ccccc1)C(=O)N1CCCC1c1ccccc1` (centres unmarked) [G3Ib], the “condensate formation by G3BP1 and RNA” value in assay [1] is listed as “unaffected”. For the same compound, the “dissolution of preformed stress granules” value in assay [2] was “nearly instantaneously dissolved stress granules”.
